Experiments:
[1] = biological target: Carbonic anhydrase 2 (Homo sapiens, UniProt P00918)
Description: Inhibitory activity against human cloned isoenzyme carbonic anhydrase II (hCA II), by esterase method.

[2] = biological target: Carbonic anhydrase 1 (Homo sapiens, UniProt P00915)
Sequence of Carbonic anhydrase 1 (P00915 whole entry): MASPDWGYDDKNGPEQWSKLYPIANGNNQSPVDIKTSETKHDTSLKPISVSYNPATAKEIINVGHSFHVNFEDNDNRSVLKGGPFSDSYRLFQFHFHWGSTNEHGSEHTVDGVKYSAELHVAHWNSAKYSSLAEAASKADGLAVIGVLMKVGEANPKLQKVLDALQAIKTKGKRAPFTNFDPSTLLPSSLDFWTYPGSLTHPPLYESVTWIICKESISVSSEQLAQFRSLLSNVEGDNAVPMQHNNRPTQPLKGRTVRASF
Description: Inhibitory activity against human cloned isoenzyme carbonic anhydrase I (hCA I), by esterase method.

Ki [1]	Ki [2]	Structure (SMILES)
0.017 µM	0.018 µM	NS(=O)(=O)Nc1ccc(I)cc1
> 100 µM	> 100 µM	CC(C)N(C(C)C)S(N)(=O)=O
0.013 µM	0.015 µM	Cc1ccc(NS(N)(=O)=O)cc1
0.013 µM	0.018 µM	NS(=O)(=O)Nc1ccc([N+](=O)[O-])cc1
0.45 µM	0.164 µM	NS(=O)(=O)NC1CCCCC1
0.021 µM	0.017 µM	CN(C)c1ccc(NS(N)(=O)=O)cc1
> 100 µM	> 100 µM	CC(C)CN(CC(C)C)S(N)(=O)=O
0.027 µM	0.149 µM	NS(=O)(=O)NCCSSCCNS(N)(=O)=O

The remaining lines, values behind:

Structure (SMILES)	Ki [1]	Ki [2]
COc1ccc(NS(N)(=O)=O)cc1	0.011 µM	0.014 µM
NS(=O)(=O)N1CCCCCC1	0.131 µM	0.163 µM
NS(=O)(=O)Nc1ccc(Br)cc1	–	0.023 µM
CCOC(=O)c1ccc(NS(N)(=O)=O)cc1	0.019 µM	0.026 µM
NS(=O)(=O)N(C1CCCCC1)C1CCCCC1	> 100 µM	> 100 µM
NS(=O)(=O)Nc1ccc(Cl)cc1	0.015 µM	0.019 µM
NS(=O)(=O)NCc1ccccc1	0.123 µM	0.133 µM
NS(=O)(=O)Nc1cccc(C(=O)c2ccccc2)c1	0.049 µM	0.062 µM
CCCCNS(N)(=O)=O	0.148 µM	0.173 µM
NS(=O)(=O)Nc1ccc(O)cc1	0.012 µM	0.016 µM
NS(=O)(=O)N(Cc1ccccc1)Cc1ccccc1	0.647 µM	> 100 µM
NS(=O)(=O)NC1C2CC3CC(C2)CC1C3 (stereo not given)	0.89 µM	0.96 µM
NS(=O)(=O)Nc1ccccc1 [PHENYLSULFAMIDE]	–	0.013 µM

Reference: ChEMBL document CHEMBL1136615, “Carbonic anhydrase inhibitors: inhibition of cytosolic isozymes I and II with sulfamide derivatives” (Bioorg Med Chem Lett, 2003)
